Patent US12473295B2, “Substituted straight chain spiro derivatives” (Janssen Pharmaceutica NV, priority 2019, dated 2025)
Structures can show the parent of a compound that is named as a salt. Values belong to the molecule of their own block, whether it stands above or below them.

Experiments:
[1] = system: iCell Cardiomyocytes2; assay: Ca2+-fluorescence assay in human pluripotent stem cell-derived cardiomyocytes (CTCM human), iCell Cardiomyocytes2; type: cell-based; design: key: Green: No concern; Yellow: Low concern; Red: High concern; Black: Very high concern due to arrhythmic events; details: 30 min; for Color @ 0.1 μM (hazard score): iCell Cardiomyocytes2, 0.1 μM; for Color @ 1 μM (hazard score): iCell Cardiomyocytes2, 1 μM
Method: (§1) 7) Cardio-Electrophysiological Effects of the Testing Compounds in Synchronously Beating Human Pluripotent Stem Cell-Derived Cardiomyocytes (hSC-CMs) Using a Ca^2+-Fluorescence Assay (CTCM Human)
(§2) Compounds were tested in the 96-well plates
Compounds were tested at 0.1 μM, 0.2 μM, 0.5 μM, 1 μM, 2.5 μM and 5 μM (n=4 per dose) on Cor.4U 9-Cardiomyocytes or on iCell® Cardiomyocytes2
Alternatively, compounds were tested at 0.1 μM, 0.3 μM; 1 μM, 3 μM, 10 μM and 30 μM (n=4 per dose) mostly on iCell® Cardiomyocytes2
(§3) Dimethylsulfoxide (DMSO). The solutions of the compound in DMSO or its solvent (final concentration of 0.1% DMSO; n=8)
(§4) Preparation of Test Article and Controls
(§5) Tested compounds were dissolved in DMSO at 1000-fold the intended concentrations. A compound “mother-plate” was made, containing the test compounds and positive and negative controls at 1000-fold the final concentrations. At the experiment day, these stock solutions were diluted with Tyrode (Sigma), supplemented with 10 mM HEPES (Gibco), to 2-fold the intended concentration (in round bottom compound plates). Final DMSO concentration in test solutions and vehicle control was 0.1%.
Second line hSC derived cardiomyocyte called iCell®, Cardiomyocytes2 were purchased from FUJIFILM Cellular Dynamics (USA). The experiments with test drugs are carried out 5 to 7 days after plating the cells onto the plate to have a living, beating monolayer of hiPSC-derived cardiomyocytes. The beating monolayer in 96-well-plates are normally taken from 2 Vials of frozen iCell) Cardiomyocytes2 (≈5 million cells/vial), which will be plated onto […] 96-well plates (≈50K/well).
(§6) Before Start of Experiment
(§7) At least one hour before the start of the experiments the normal cell medium was replaced with Tyrode solution with Calcium dye (see below).
(§8) Cal 520 dye (AAT Bioquest) was dissolved in 11 ml of Tyrode supplemented with 10 mM HEPES and warmed up to 37° C. before adding to the cells.
(§9) 35 μl cell culture medium was removed from each well and replaced with 35 μl of pre-warmed Cal 520 dye solution and cell plate was incubated for 45 min at 37° C./5% CO2. Cells were incubated for 5 min at 37° C.
(§10) Spontaneous electrical activity is recorded, using Cal520™ (AAT Bioquest) calcium fluorescence-dye signaling. This dye integrates the total intracellular calcium activity over the whole well. A bottle of Cal520 dye (50 μg, MW: 1103/mol) is dissolved with 50 μl DMSO as a stock solution of 0.9 mM. 50 μL of the stock solution of the dye was added to 10 ml Tryodes solution to have dye concentration of 4.5 μM. Subsequently, 35 μl of this dye solution was added into each well, to have a final dye concentration of 1.58 μM. The current dye protocol on this CTCM human assay was established recently (Ivan Kopljar et al, Journal of Pharmacological and toxicological methods 2018. 91: 80-86; Lu et al., Tox Sci 2019. 170 (2): 345-356).
(§11) Fluorescent signals (Ca^2+ transient morphology) were measured using the Functional Drug Screen System (FDSS/μCell; Hamamatsu, Japan) and the recordings were subsequently analyzed off-line, using appropriate software e.g. Notocord.
(§12) The cell plate was loaded into the FDSS/μCell for a test run: Ca^2+ transients were measured for 4 minutes to check for synchronous beating of the cardiomyocytes in each well. All 96 wells were measured simultaneously (sampling interval: 0.06 s, short exposure time: 10 ms; excitation wavelength 480 nm; emission wavelength 540 nm; FDSS/μCell warmed to 37° C.).
(§13) During the compound addition step, 100 μl of the respective double-concentrated test solutions was pipetted into each well simultaneously.
(§14) Data were analyzed off-line using appropriate software e.g. Notocord-Hem (version 4.3).
The following parameters of the Ca^2′ transient morphology were measured: • beat rate (BR) • amplitude of the Ca^2+ transient (Amp), • CTD90: Ca^2+ transient duration at 90% (time to 90% of the initial base value). […]

[2] = target: hERG potassium channel (IKr) (Homo sapiens (Human), UniProt Q12809); assay: Effect on membrane potassium current IKr in hERG transfected CHO cells, Protocol 1 (QPatch); type: cell-based; details: human, CHO cells stably expressing the hERG potassium channel, pH 7.4
Chain of hERG potassium channel (IKr) (Q12809 whole entry): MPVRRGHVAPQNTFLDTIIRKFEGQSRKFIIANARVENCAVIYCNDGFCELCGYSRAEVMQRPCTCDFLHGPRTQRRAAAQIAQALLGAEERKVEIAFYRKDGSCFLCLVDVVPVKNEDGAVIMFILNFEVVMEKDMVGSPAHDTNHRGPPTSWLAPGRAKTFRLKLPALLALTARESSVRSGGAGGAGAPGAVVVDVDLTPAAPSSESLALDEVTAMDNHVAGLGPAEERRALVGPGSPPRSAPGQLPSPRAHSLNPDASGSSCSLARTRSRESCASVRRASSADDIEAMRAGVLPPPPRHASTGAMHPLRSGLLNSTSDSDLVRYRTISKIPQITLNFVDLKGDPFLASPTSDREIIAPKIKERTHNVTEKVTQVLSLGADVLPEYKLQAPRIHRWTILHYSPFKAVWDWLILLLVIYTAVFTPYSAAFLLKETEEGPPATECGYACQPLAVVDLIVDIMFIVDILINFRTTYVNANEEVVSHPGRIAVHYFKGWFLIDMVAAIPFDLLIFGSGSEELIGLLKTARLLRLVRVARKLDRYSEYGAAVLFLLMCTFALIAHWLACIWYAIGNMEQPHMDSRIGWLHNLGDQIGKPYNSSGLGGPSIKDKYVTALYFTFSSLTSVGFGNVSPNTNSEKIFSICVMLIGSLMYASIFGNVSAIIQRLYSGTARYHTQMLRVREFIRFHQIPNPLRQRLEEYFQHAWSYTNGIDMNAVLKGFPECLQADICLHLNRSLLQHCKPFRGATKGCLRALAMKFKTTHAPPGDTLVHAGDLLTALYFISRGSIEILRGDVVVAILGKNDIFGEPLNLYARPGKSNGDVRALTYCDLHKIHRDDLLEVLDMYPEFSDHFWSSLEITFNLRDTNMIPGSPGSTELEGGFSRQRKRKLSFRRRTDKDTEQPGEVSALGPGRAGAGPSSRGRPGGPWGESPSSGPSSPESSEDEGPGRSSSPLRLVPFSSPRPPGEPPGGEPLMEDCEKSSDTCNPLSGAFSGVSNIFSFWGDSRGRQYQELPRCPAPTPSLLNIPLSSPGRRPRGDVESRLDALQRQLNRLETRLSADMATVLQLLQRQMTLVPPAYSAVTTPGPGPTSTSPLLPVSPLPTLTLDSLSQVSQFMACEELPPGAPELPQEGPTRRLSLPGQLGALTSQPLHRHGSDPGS
Outline: (§15)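 Whole-cell automated patch clamp on CHO cells stably expressing hERG, held at −80 mV; the value is the tail current at −40 mV after a 2 s step to +60 mV, at pH 7.4 bath and pH 7.2 pipette. After 0.3% DMSO control, compound was applied at 3×10^−7 M, 3×10^−6 M, 10^−5 M and 3×10^−5 M, 5 min each. IC50 comes from a non-linear least-squares fit of block versus vehicle.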

[3] = system: OCI-AML3 tumors; assay: Efficacy study in disseminated OCI-AML3 model (survival); type: in vivo, mouse; details: disseminated OCI-AML3, SCID beige mice, vehicle 38.5 days
[4] = system: OCI-AML3 cells; assay: Proliferation assay (spheroid growth, 8 days), OCI-AML3; type: cell-based, human; details: OCI-AML3, 8 days, hydrochloride
Outline: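 Spheroid size on day 8, taken as live-cell imaging confluence, served as readout after 8-day compound exposure (0.3% DMSO, 37 °C, 5% CO2) in round-bottom low-attachment wells. Seeding was 200 cells for MOLM14 and OCI-AML3, 300 for KO-52. IC50 came from % effect versus DMSO and reference baseline, fitted with variable slope.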

[5] = system: MOLM14 cells; assay: Proliferation assay (spheroid growth, 8 days), MOLM14; type: cell-based, human; details: MOLM14, 8 days; hydrochloride; read-out: spheroid assay_OneTime MOLM14 IC50;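 also: spheroid size read as confluence by live-cell imaging, compounds added at a range of concentrations with 0.3% DMSO, DMSO-treated wells = 0%, highest reference dose = low control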
[6] = system: Cor.4U Cardiomyocytes; assay: Ca2+-fluorescence assay in human pluripotent stem cell-derived cardiomyocytes (CTCM human), Cor.4U Cardiomyocytes; type: cell-based; design: key: Green: No concern; Yellow: Low concern; Red: High concern; Black: Very high concern due to arrhythmic events; details: 30 min
Method: as §1, §2
Compounds were tested at 0.1 μM, 0.2 μM, 0.5 μM, 1 μM, 2.5 μM and 5 μM (n=4 per dose) on Cor.4U 9-Cardiomyocytes or on iCell® Cardiomyocytes2 […]
as §3, §4, §5
hSC-CMs (Cor.4U® Cardiomyocytes) were obtained from CDI (Ncardia, Germany). Cells are pre-plated and seeded in fibronectin-coated 96-well plates at a density suited to form a monolayer and maintained in culture in a stage incubator (37° C., 5% CO2), according to the instructions of the cell provider.
as §6, §7, §8, §9, §10, §11, §12, §13, §14
The following parameters of the Ca^2′ transient morphology were measured: • beat rate (BR) • amplitude of the Ca^2+ transient (Amp), • CTD90: Ca^2+ transient duration at 90% (time to 90% of the initial base value).
The presence of various ‘arrhythmia-like’ activities were also noted during the experimental periods. […]

[7] = target: hERG potassium channel (Homo sapiens (Human), UniProt Q12809); assay: Effect on membrane potassium current IKr in hERG transfected CHO cells, Protocol 1 (QPatch); type: cell-based
Chain of hERG potassium channel (Q12809 whole entry): as above
Outline: as §15

SMILES: CCN(C(=O)c1cc(F)ccc1Oc1nncnc1N1CCC2(C1)CN([C@H](CCCNCCOC)C(C)C)C2)C(C)C [Compound 11, (R)-N-ethyl-5-fluoro-N-isopropyl-2-((5-(2-(6-((2-methoxyethyl)amino)-2-methylhexan-3-yl)-2,6-diazaspiro[3.4]octan-6-yl)-1,2,4-triazin-6-yl)oxy)benzamide]
Color @ 0.1 μM (hazard score) ([1]; range 0.1-30 μM): Green
Color @ 0.3 μM (hazard score) ([1]; iCell Cardiomyocytes2, 0.3 μM): Green
Color @ 1 μM (hazard score) ([1]; range 0.1-30 μM): Green
Color @ 3 μM (hazard score) ([1]; iCell Cardiomyocytes2, 3 μM): Green
Color @ 10 μM (hazard score) ([1]; iCell Cardiomyocytes2, 10 μM): Green
Color @ 30 μM (hazard score) ([1]; iCell Cardiomyocytes2, 30 μM): Green
IC50 at 5 min [2]: > 30200 nM

SMILES: CCN(C(=O)c1cc(F)ccc1Oc1nncnc1N1CCC2(C1)CN([C@H](CCCN(C)CCOC)C(C)C)C2)C(C)C [Compound 70, (R)-N-ethyl-5-fluoro-N-isopropyl-2-((5-(2-(6-((2-methoxyethyl)(methyl)amino)-2-methylhexan-3-yl)-2,6-diazaspiro[3.4]octan-6-yl)-1,2,4-triazin-6-yl)oxy)benzamide oxalate]
Color @ 0.1 μM (hazard score) [1]: Green
Color @ 0.2 μM (hazard score) ([1]; iCell Cardiomyocytes2, 0.2 μM): Green
Color @ 0.5 μM (hazard score) ([1]; iCell Cardiomyocytes2, 0.5 μM): Green
Color @ 1 μM (hazard score) [1]: Green
Color @ 2.5 μM (hazard score) ([1]; iCell Cardiomyocytes2, 2.5 μM): Green
Color @ 5 μM (hazard score) ([1]; iCell Cardiomyocytes2, 5 μM): Green
median days of survival ([3]; 30 mg/kg PO daily for 28 days): 75.5 days
median days of survival ([3]; 50 mg/kg PO daily for 28 days): 58.5 days

IC50 [4]: 160 nM
IC50 [5]: 58 nM
SMILES: CCN(C(=O)c1cc(F)ccc1Oc1nncnc1N1CCC2(C1)CN([C@H](CCCNC)C(C)C)C2)C(C)C [Compound 19, (R)-N-ethyl-5-fluoro-N-isopropyl-2-((5-(2-(2-methyl-6-(methylamino)hexan-3-yl)-2,6-diazaspiro[3.4]octan-6-yl)-1,2,4-triazin-6-yl)oxy)benzamide hydrochloride]
Color @ 0.1 μM (hazard score) ([6]; 0.1 μM): Green
Color @ 0.2 μM (hazard score) ([6]; 0.2 μM): Green
Color @ 0.5 μM (hazard score) ([6]; 0.5 μM): Green
Color @ 1 μM (hazard score) ([6]; 1 μM): Green
Color @ 2.5 μM (hazard score) ([6]; 2.5 μM): Green
Color @ 5 μM (hazard score) ([6]; 5 μM): Green
IC50 [7]: > 30200 nM
